{"source": "ChEMBL document CHEMBL1201862", "about": "“PubChem BioAssay data set” (2004)", "key": {"[1]": {"assay": "PAX2 cell-based inhibition, dose response, selectivity assay for PAX8 inhibitor project, plate reader, dry powder samples (AID 743048);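 note: HEK293 cells carrying a WT1 promoter luciferase reporter driven by expressed Pax2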", "assay_type": "functional"}, "[2]": {"assay": "IGROV1 ovarian cancer cell cytotoxicity, dose response, PAX8 inhibitor project, plate reader, dry powder samples (AID 743043)", "assay_type": "functional, cell-based", "settings": "IGROV-1"}, "[3]": {"assay": "cytotoxicity in OV-90 ovarian cancer cells, dose response, PAX8 inhibitor project, cell-based, plate reader, dry powder, SA8 (AID 743149)", "assay_type": "functional"}, "[4]": {"assay": "cytotoxicity in COV434 cells, dose response, cytotoxicity control for PAX8 inhibitor project, cell-based, plate reader, dry powder, SA7 (AID 743145)", "assay_type": "functional"}, "[5]": {"assay": "cytotoxicity dependent on PAX8, dose response, cell-based, plate reader, dry powder (AID 743049)", "assay_type": "functional"}, "[6]": {"assay": "PAX5 activity inhibitors, dose response, selectivity assay for PAX8 inhibitor project, cell-based, plate reader, dry powder samples (AID 743047);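 note: HEK293 cells carrying a Pax5 driven CD19 promoter luciferase reporter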", "assay_type": "functional"}, "[7]": {"assay": "NIH:OVCAR-3 ovarian cancer cell cytotoxicity, dose response, PAX8 inhibitor project, plate reader, dry powder samples (AID 743044)", "assay_type": "functional, cell-based"}, "[8]": {"assay": "human group III sPLA2 inhibitors, dose response, biochemical, QFRET, IC50 (AID 743457);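 note: green fluorescence rise as the enzyme cleaves BODIPY PC-A2 in liposomes; potency for inhibition of the enzyme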"}, "Nonstructural protein 1": {"molecular_target": "Nonstructural protein 1 (Influenza A virus, UniProt Q194T2)", "sequence (Q194T2 whole entry)": "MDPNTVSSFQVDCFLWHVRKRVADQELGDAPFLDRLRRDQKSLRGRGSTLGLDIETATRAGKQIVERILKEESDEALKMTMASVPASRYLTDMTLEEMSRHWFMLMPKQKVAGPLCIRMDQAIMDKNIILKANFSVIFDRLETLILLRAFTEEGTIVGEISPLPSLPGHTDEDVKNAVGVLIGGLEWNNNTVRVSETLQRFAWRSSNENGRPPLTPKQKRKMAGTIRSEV", "assay_type": "functional, Influenza A virus (A/California/07/2009(H1N1))"}, "[9]": {"assay": "Jurkat T cell cytotoxicity, dose response, cytotoxicity control for P. falciparum gametocyte viability project, luminescence (AID 1117277);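 note: potency reflects loss of cellular ATP meaning fewer viable cells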", "assay_type": "functional, cell-based"}, "[10]": {"assay": "P. falciparum late gametocyte killing, dose response, luminescence (AID 1117278);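 note: gametocytes exposed to compound for 24 hours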", "assay_type": "functional, cell-based"}, "[11]": {"molecular_target": "Metabotropic glutamate receptor 5 (Rattus norvegicus, UniProt P31424)", "sequence (P31424 whole entry)": "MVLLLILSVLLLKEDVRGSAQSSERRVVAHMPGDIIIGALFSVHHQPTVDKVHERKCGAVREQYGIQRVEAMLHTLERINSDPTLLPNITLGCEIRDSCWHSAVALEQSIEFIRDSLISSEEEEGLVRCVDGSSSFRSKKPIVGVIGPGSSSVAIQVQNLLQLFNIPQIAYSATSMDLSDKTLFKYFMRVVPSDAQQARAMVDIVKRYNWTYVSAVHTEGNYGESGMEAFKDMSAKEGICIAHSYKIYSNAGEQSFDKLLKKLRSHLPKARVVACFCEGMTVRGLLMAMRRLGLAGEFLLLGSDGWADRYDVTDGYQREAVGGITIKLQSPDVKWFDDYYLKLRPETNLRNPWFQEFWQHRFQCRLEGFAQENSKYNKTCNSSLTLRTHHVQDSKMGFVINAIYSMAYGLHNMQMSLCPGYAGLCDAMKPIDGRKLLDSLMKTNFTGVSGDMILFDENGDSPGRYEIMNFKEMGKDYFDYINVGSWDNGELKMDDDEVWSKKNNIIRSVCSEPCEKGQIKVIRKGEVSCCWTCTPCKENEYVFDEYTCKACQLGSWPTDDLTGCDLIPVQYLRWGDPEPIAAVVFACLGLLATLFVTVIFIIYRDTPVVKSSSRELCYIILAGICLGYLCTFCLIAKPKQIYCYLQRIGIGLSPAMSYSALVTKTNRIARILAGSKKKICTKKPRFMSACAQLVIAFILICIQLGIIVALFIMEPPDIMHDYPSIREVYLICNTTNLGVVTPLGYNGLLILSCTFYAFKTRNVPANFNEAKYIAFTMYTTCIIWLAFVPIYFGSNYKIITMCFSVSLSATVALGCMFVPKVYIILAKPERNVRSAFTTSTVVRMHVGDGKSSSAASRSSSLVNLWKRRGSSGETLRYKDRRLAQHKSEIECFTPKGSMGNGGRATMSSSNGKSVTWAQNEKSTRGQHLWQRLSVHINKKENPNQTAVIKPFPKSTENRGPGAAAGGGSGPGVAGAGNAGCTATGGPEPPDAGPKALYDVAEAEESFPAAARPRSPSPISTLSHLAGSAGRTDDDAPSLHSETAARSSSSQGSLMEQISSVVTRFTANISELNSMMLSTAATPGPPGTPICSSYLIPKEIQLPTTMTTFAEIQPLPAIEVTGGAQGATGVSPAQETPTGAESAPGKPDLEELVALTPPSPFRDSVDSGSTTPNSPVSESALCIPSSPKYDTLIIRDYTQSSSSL", "assay": "Identification of a glycine sulfonamide based non-MPEP site positive allosteric potentiator (PAM) of mGlu5 (calcium_assay).", "assay_type": "functional"}, "[12]": {"assay": "ADAM10 inhibitors, peptide cleavage, dose response, biochemical, QFRET (AID 743254);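 note: ADAM10 enzyme with the DM2 quenched FRET peptide as substrate; EDANS fluorescence gain as the protease cuts the substrate; inhibitor potency against ADAM10 proteolytic activity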"}, "[13]": {"molecular_target": "Disintegrin and metalloproteinase domain-containing protein 17 (Homo sapiens, UniProt P78536)", "sequence (P78536 whole entry, the tested form may be a part)": "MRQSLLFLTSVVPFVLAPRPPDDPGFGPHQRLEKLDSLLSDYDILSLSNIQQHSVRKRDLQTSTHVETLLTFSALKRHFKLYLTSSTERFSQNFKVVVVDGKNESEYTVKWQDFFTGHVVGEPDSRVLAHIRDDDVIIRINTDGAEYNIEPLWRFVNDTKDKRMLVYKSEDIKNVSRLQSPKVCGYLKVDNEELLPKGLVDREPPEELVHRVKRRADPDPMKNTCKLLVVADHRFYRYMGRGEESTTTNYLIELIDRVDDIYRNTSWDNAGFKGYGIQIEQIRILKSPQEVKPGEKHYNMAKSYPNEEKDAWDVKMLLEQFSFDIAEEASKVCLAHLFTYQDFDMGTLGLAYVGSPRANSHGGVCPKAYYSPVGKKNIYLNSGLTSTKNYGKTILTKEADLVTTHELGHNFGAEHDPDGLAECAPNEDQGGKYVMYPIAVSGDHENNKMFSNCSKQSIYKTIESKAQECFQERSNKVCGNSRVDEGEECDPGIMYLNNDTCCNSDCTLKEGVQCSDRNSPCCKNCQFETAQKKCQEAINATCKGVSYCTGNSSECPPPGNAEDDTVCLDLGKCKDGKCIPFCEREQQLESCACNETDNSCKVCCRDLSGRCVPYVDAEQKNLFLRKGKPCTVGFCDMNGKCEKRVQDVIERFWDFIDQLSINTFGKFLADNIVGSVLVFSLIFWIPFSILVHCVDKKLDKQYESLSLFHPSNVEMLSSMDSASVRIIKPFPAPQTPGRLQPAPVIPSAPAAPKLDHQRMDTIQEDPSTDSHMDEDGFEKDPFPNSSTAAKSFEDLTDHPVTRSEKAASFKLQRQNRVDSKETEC", "assay": "ADAM17 protease inhibitors, dose response, counter-screen for ADAM10 exosite inhibitor project, biochemical, quenched FRET substrate (AID 743253)"}, "[14]": {"molecular_target": "Metabotropic glutamate receptor 3 (Rattus norvegicus, UniProt P31422)", "sequence (P31422 whole entry)": "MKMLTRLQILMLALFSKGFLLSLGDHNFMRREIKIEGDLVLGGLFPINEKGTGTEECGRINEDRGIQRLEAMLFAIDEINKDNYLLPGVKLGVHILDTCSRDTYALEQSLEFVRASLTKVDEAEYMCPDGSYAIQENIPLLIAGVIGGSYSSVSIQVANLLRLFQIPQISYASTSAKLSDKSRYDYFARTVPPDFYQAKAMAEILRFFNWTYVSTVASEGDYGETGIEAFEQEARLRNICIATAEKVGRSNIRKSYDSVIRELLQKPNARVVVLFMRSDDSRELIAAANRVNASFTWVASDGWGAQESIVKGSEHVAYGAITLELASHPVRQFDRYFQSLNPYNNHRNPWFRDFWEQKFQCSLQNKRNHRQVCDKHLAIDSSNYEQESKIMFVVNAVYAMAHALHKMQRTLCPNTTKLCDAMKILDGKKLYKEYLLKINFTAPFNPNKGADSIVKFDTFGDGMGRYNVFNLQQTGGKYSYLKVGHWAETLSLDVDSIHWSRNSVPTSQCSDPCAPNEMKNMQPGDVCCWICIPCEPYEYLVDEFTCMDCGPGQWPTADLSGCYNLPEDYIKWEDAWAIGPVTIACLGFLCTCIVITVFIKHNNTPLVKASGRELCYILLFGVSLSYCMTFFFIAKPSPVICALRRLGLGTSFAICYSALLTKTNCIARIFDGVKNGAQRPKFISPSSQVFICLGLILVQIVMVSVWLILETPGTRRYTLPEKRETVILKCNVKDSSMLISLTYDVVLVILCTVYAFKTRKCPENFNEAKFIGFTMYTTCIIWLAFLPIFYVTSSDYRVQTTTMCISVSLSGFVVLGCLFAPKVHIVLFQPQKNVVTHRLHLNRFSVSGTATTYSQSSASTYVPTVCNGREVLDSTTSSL", "assay": "mGlu3 NAM potency via calcium readout, dose response, mGlu3 NAM project, TREx293 cells, Galpha15, calcium flux (AID 651840)", "assay_type": "functional"}, "[15]": {"assay": "HepG2 cell cytotoxicity, dose response, cytotoxicity control, plate reader, cherry-pick, antagonist series (AID 743416)", "assay_type": "functional, cell-based"}, "[16]": {"assay": "MC4R antagonists, dose response, counter-screen for LGR2 antagonist project, cell-based, plate reader, cherry pick (AID 743444);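 note: transfected HEK 293 cells stimulated with alpha-MSH peptide; potency of inhibitors of the alpha-MSH evoked signal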", "assay_type": "functional"}, "[17]": {"assay": "LGR2 antagonists, dose response, cell-based, HEK293, CRE-luciferase reporter, cherry pick, set 2 (AID 743343);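 note: transfected cells were stimulated with diluted bursicon conditioned medium after compound addition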", "assay_type": "functional"}, "[18]": {"assay": "HEK293 cell cytotoxicity, dose response, cytotoxicity control, plate reader, cherry-picked samples (AID 743446)", "assay_type": "functional, cell-based"}, "[19]": {"molecular_target": "T1, Oxysterols receptor LXR-beta (Homo sapiens, UniProt P55055)", "T1 sequence (P55055 whole entry)": "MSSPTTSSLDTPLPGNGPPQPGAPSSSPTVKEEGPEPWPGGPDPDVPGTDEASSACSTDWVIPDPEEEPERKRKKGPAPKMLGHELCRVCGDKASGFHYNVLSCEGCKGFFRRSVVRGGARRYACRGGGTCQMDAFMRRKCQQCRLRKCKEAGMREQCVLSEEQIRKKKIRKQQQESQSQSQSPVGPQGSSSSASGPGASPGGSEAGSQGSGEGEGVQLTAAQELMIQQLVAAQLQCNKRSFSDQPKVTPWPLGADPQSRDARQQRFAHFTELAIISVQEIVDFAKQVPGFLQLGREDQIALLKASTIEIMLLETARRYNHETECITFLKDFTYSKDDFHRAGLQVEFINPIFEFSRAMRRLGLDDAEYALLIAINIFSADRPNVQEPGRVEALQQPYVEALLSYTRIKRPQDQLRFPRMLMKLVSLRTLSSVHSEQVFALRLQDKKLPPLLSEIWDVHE", "assay_type": "functional, cell-based"}, "[20]": {"molecular_target": "5-hydroxytryptamine receptor 2A (Mus musculus, UniProt P35363)", "sequence (P35363 whole entry)": "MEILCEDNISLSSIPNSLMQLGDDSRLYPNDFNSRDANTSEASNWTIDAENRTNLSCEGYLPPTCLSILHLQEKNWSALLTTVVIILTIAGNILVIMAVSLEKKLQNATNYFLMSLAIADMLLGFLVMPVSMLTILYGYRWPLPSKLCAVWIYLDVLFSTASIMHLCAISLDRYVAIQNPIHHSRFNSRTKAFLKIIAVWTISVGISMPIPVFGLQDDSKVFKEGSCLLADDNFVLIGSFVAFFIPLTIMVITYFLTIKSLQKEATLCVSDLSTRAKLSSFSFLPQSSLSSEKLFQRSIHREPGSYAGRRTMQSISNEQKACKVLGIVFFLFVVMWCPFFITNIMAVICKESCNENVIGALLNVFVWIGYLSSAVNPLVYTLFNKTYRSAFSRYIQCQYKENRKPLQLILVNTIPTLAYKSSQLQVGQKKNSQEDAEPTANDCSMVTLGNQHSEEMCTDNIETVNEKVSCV", "assay_type": "functional, cell-based"}, "Mu-type opioid receptor": {"molecular_target": "Mu-type opioid receptor (Homo sapiens, UniProt P35372)", "sequence (P35372 whole entry)": "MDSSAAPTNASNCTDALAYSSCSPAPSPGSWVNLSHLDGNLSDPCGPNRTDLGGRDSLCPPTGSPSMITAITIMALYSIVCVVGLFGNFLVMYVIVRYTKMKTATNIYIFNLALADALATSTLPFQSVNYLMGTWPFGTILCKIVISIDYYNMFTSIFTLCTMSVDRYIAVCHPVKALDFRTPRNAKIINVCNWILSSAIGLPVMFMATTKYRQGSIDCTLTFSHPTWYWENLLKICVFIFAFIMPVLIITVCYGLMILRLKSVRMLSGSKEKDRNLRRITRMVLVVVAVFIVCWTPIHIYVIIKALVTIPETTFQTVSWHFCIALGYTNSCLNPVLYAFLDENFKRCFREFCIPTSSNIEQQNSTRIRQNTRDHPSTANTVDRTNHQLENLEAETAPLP", "assay_type": "functional, cell-based"}, "[21]": {"assay": "HepG2 cell cytotoxicity, dose response, cytotoxicity control, ATP luminescence, cherry-pick, activator set 2 (AID 1053143)", "assay_type": "functional, cell-based"}, "[22]": {"assay": "cytotoxicity in OVCAR8 ovarian cancer cells, dose response, PAX8 project, cell-based, plate reader, dry powder samples (AID 743197)", "assay_type": "functional", "settings": "OVCAR-8"}, "[23]": {"assay": "IOSE-T80 ovarian epithelial cell cytotoxicity, dose response, cytotoxicity control for PAX8 inhibitor project, plate reader, dry powder samples (AID 743045)", "assay_type": "functional, cell-based"}, "[24]": {"assay": "non-specific cell cytotoxicity, dose response, cytotoxicity control for PAX8 inhibitor project, plate reader, dry powder samples (AID 743021)", "assay_type": "functional, cell-based"}, "[25]": {"assay": "A2780 ovarian cancer cell cytotoxicity, dose response, cytotoxicity control, plate reader, dry powder samples (AID 743046)", "assay_type": "functional, cell-based"}, "Paired box protein Pax-8": {"molecular_target": "Paired box protein Pax-8 (Homo sapiens, UniProt Q06710)", "sequence (Q06710 whole entry)": "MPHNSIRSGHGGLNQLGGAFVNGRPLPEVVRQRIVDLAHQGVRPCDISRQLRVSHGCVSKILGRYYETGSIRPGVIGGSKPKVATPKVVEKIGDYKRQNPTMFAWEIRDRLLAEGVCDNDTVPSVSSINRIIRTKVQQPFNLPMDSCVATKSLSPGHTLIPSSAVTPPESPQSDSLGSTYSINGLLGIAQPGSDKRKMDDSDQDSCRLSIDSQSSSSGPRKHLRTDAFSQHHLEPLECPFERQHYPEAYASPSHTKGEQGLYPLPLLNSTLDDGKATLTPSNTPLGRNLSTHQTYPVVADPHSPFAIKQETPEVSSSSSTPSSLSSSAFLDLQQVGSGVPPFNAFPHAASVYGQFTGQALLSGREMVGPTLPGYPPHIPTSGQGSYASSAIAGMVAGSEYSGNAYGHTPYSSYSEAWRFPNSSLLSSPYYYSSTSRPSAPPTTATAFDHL", "assay": "inhibitors of PAX8-driven TPO luciferase reporter, dose response, RMG-I cells, cherry-pick (AID 687027);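 note: luciferase reporter driven by Pax8 target thyroperoxidase promoter measured by SteadyGlo luminescence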", "assay_type": "functional, cell-based"}}, "note": "Activity calls are given as the source filed them.", "data": [{"smiles": "COc1ccccc1C#Cc1ccc([C@H]2[C@@H](CO)N(C(=O)C3CCCC3)[C@H]2C#N)cc1", "values": [{"measurement": "AC50", "setting": "[1]", "value": "27.6 µM (active)"}, {"measurement": "AC50", "setting": "[2]", "value": "37.4 µM (active)"}, {"measurement": "AC50", "setting": "[3]", "value": "> 70 µM (inactive)"}, {"measurement": "AC50", "setting": "[4]", "value": "> 70 µM (inactive)"}, {"measurement": "AC50", "setting": "[5]", "value": "40.7 µM (active)"}, {"measurement": "AC50", "setting": "[6]", "value": "23 µM (active)"}, {"measurement": "AC50", "setting": "[7]", "value": "48.3 µM (active)"}]}, {"smiles": "CCN1C(=O)/C(=C2/C=Cc3ccccc3N2CC)SC1=S", "values": [{"measurement": "IC50", "setting": "[8]", "value": "94.1 µM (inactive)"}, {"measurement": "IC50", "setting": "Nonstructural protein 1", "value": "9.45 µM (active)"}]}, {"smiles": "CC(C)CNC(=O)c1cccc(NC(=O)COc2ccc([N+](=O)[O-])cc2)c1", "values": [{"measurement": "IC50", "setting": "[9]", "value": "> 83.3 µM (inactive)"}, {"measurement": "IC50", "setting": "[10]", "value": "> 109 µM (inactive)"}]}, {"smiles": "CS(=O)(=O)N(CC(=O)Nc1ccc(F)nc1)c1ccccc1Cl", "values": [{"measurement": "EC50", "setting": "[11]", "value": 4.4, "unit": "µM"}]}, {"smiles": "CC(O)(c1ccc(F)c(F)c1)c1nc(-c2cccc(C(F)(F)F)c2)cs1", "note": "(centres undefined)", "values": [{"measurement": "IC50", "setting": "[12]", "value": "7.59 µM (active)"}, {"measurement": "IC50", "setting": "[13]", "value": "> 69.5 µM (inactive)"}]}, {"smiles": "C=CCC1(O)CCCN(C(=O)c2ccc(C#Cc3ccc(OC)cc3)cc2)C1", "note": "(centres undefined)", "values": [{"measurement": "IC50", "setting": "[14]", "value": 0.783, "unit": "µM"}]}, {"smiles": "Cc1ccc(-c2nnc(Nc3ccccc3)o2)cc1", "values": [{"measurement": "AC50", "setting": "[15]", "value": "> 52 µM (inactive)"}, {"measurement": "AC50", "setting": "[16]", "value": "25.6 µM (active)"}, {"measurement": "AC50", "setting": "[17]", "value": "18.6 µM (active)"}, {"measurement": "AC50", "setting": "[18]", "value": "> 52 µM (inactive)"}]}, {"smiles": "CS(=O)(=O)N1c2ccccc2CCC1C(=O)Nc1ccncc1", "note": "(centres undefined)", "values": [{"measurement": "EC50", "setting": "[11]", "value": "10 µM (inconclusive)"}]}, {"smiles": "c1ccc2c(c1)c1c3n2CCNC3CCC1", "note": "(centres undefined)", "values": [{"measurement": "IC50", "setting": "[8]", "value": "> 122 µM (inactive)"}]}, {"smiles": "Cc1ccc(-c2nc(-c3ccncc3)no2)cc1C", "values": [{"measurement": "AC50", "setting": "[15]", "value": "> 52 µM (inactive)"}, {"measurement": "AC50", "setting": "[16]", "value": "25.8 µM (active)"}, {"measurement": "AC50", "setting": "[17]", "value": "17.8 µM (active)"}, {"measurement": "EC50", "setting": "[19]", "value": "> 67.5 µM (inactive)"}]}, {"smiles": "NC(=O)[C@H]1CC2(CC(c3cccc(NC(=O)CC(c4ccccc4)c4ccccc4)c3)=NO2)CN1C(=O)CC(c1ccccc1)c1ccccc1", "note": "(some centres undefined)", "values": [{"measurement": "IC50", "setting": "[12]", "value": "> 69.5 µM (inactive)"}, {"measurement": "IC50", "setting": "[13]", "value": "> 69.5 µM (inactive)"}]}, {"smiles": "CN1CCc2c(sc(NC(=O)Cc3ccccc3)c2C#N)C1", "values": [{"measurement": "EC50", "setting": "[20]", "value": "48.2 µM (inactive)"}, {"measurement": "AC50", "setting": "cells", "value": "66.1 µM (active)"}, {"measurement": "EC50", "setting": "Mu-type opioid receptor", "value": "92.5 µM (inactive)"}]}, {"smiles": "COC(=O)c1c(NC(C)=O)sc(C(=O)Nc2ccccc2F)c1C", "values": [{"measurement": "AC50", "setting": "[21]", "value": "26 µM (active)"}]}, {"smiles": "C[C@H](CO)N1C[C@H](C)[C@@H](CN(C)S(=O)(=O)c2ccc(F)cc2)OCCCC[C@H](C)Oc2ccc(NS(=O)(=O)c3ccc(Cl)cc3)cc2C1=O", "values": [{"measurement": "AC50", "setting": "[2]", "value": "35.1 µM (active)"}, {"measurement": "AC50", "setting": "[22]", "value": "14.9 µM (active)"}, {"measurement": "AC50", "setting": "[23]", "value": "13.1 µM (active)"}, {"measurement": "AC50", "setting": "[24]", "value": "49.2 µM (active)"}, {"measurement": "AC50", "setting": "[25]", "value": "23.3 µM (active)"}, {"measurement": "AC50", "setting": "Paired box protein Pax-8", "value": "4.97 µM (active)"}, {"measurement": "AC50", "setting": "[7]", "value": "11.9 µM (active)"}]}, {"smiles": "COc1ccc(C#Cc2ccc(C(=O)N3CCCC(C)(C)C3)cc2)cc1", "values": [{"measurement": "IC50", "setting": "[14]", "value": 2.01, "unit": "µM"}]}]}
